{
  "source": "patent US20050112573A1",
  "about": "“Method of detecting toxic substance” (priority 2001, published 2005)",
  "test_system": "yeast genes (level of expressed mRNA)",
  "test": "DNA chip analysis of expressed mRNA of yeast genes after 2 h culture with a toxic chemical substance",
  "assay_type": "cell-based, Saccharomyces cerevisiae S288C",
  "how_it_was_run": "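Values are treated-to-control fluorescence ratios from a whole-yeast-genome DNA chip (65° C, over 12 h hybridization) using Cy3/Cy5-labelled cDNA from mRNA. Log-phase S288C cells in YPD at 25° C were exposed 2 h to a toxicant at sublethal, growth-inhibiting concentration.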",
  "data": [
    {"substance": "CdCl2 [(2)]", "values": [
      {"measurement": "The level of expressed mRNA in the presence of chemical substance/", "setting": "yeast gene YNL074C, ratio to control without chemical substance, 2 h culture", "result": 1.3},
      {"measurement": "The level of expressed mRNA in the presence of chemical substance/", "setting": "yeast gene YNL092W, ratio to control without chemical substance, 2 h culture", "result": 1.4},
      {"measurement": "The level of expressed mRNA in the presence of chemical substance/The level of expressed mRNA in the absence of chemical substance", "setting": "yeast gene YNL093W", "result": 6.4},
      {"measurement": "The level of expressed mRNA in the presence of chemical substance/", "setting": "yeast gene YNL115C, ratio to control without chemical substance, 2 h culture", "result": 1.8},
      {"measurement": "The level of expressed mRNA in the presence of chemical substance/", "setting": "yeast gene YNL156C, ratio to control without chemical substance, 2 h culture", "result": 1.2},
      {"measurement": "The level of expressed mRNA in the presence of chemical substance/", "setting": "yeast gene YNL234W, ratio to control without chemical substance, 2 h culture", "result": 1.1},
      {"measurement": "The level of expressed mRNA in the presence of chemical substance/", "setting": "yeast gene YNL281W, ratio to control without chemical", "result": 1.3},
      {"measurement": "The level of expressed mRNA in the presence of chemical substance/", "setting": "yeast gene YNL305C, ratio to control without chemical", "result": 2.2},
      {"measurement": "The level of expressed mRNA in the presence of chemical substance/The level of expressed mRNA in the absence of chemical substance", "setting": "yeast gene YNL333W", "result": 1.4},
      {"measurement": "The level of expressed mRNA in the presence of chemical substance/The level of expressed mRNA in the absence of chemical substance", "setting": "yeast gene YNR010W", "result": 1.2},
      {"measurement": "The level of expressed mRNA in the presence of chemical substance/", "setting": "yeast gene YNR068C, ratio to control without chemical", "result": 1.5},
      {"measurement": "The level of expressed mRNA in the presence of chemical substance/The level of expressed mRNA in the absence of chemical substance", "setting": "yeast gene YNR069C", "result": 1.3},
      {"measurement": "The level of expressed mRNA in the presence of chemical substance/in the absence of chemical substance", "setting": "yeast gene YNR072W", "result": 1.5},
      {"measurement": "The level of expressed mRNA in the presence of chemical substance/The level of expressed mRNA in the absence of chemical substance", "setting": "yeast gene YOL013C", "result": 1.0},
      {"measurement": "The level of expressed mRNA in the presence of chemical substance/", "setting": "yeast gene YOL032W, ratio to control without chemical", "result": 0.8},
      {"measurement": "The level of expressed mRNA in the presence of chemical substance/", "setting": "yeast gene YOL036W, ratio to control without chemical", "result": 0.9},
      {"measurement": "The level of expressed mRNA in the presence of chemical substance/", "setting": "yeast gene YOL047C, ratio to control without chemical", "result": 1.1},
      {"measurement": "The level of expressed mRNA in the presence of chemical substance/", "setting": "yeast gene YOL071W, ratio to control without chemical", "result": 2.0},
      {"measurement": "The level of expressed mRNA in the presence of chemical substance/", "setting": "yeast gene YOL082W, ratio to control without chemical", "result": 1.6},
      {"measurement": "The level of expressed mRNA in the presence of chemical substance/", "setting": "yeast gene YOL083W, ratio to control without chemical", "result": 2.3},
      {"measurement": "The level of expressed mRNA in the presence of chemical substance/in the absence of chemical substance", "setting": "yeast gene YOL096C", "result": 1.0},
      {"measurement": "The level of expressed mRNA in the presence of chemical substance/", "setting": "yeast gene YOL117W, ratio to control without chemical", "result": 1.1},
      {"measurement": "The level of expressed mRNA in the presence of chemical substance/", "setting": "yeast gene YOL131W, ratio to control without chemical", "result": 1.5},
      {"measurement": "The level of expressed mRNA in the presence of chemical substance/", "setting": "yeast gene YOL150C, ratio to control without chemical substance, 2 h culture", "result": 3.7},
      {"measurement": "The level of expressed mRNA in the presence of chemical substance/", "setting": "yeast gene YOL162W, ratio to control without chemical", "result": 6.9},
      {"measurement": "The level of expressed mRNA in the presence of chemical substance/The level of expressed mRNA in the absence of chemical substance", "setting": "yeast gene YOL164W", "result": 4.4},
      {"measurement": "The level of expressed mRNA in the presence of chemical substance/", "setting": "yeast gene YOR019W, ratio to control without chemical", "result": 1.2},
      {"measurement": "The level of expressed mRNA in the presence of chemical substance/The level of expressed mRNA in the absence of chemical substance", "setting": "yeast gene YOR036W", "result": 0.9},
      {"measurement": "The level of expressed mRNA in the presence of chemical substance/The level of expressed mRNA in the absence of chemical substance", "setting": "yeast gene YOR117W", "result": 1.3},
      {"measurement": "The level of expressed mRNA in the presence of chemical substance/The level of expressed mRNA in the absence of chemical substance", "setting": "yeast gene YOR124C", "result": 1.1},
      {"measurement": "The level of expressed mRNA in the presence of chemical substance/The level of expressed mRNA in the absence of chemical substance", "setting": "yeast gene YOR132W", "result": 1.6},
      {"measurement": "The level of expressed mRNA in the presence of chemical substance/The level of expressed mRNA in the absence of chemical substance", "setting": "yeast gene YOR157C", "result": 1.3},
      {"measurement": "The level of expressed mRNA in the presence of chemical substance/in the absence of chemical substance", "setting": "yeast gene YOR180C", "result": 1.1},
      {"measurement": "The level of expressed mRNA in the presence of chemical substance/The level of expressed mRNA in the absence of chemical substance", "setting": "yeast gene YOR181W", "result": 0.9},
      {"measurement": "The level of expressed mRNA in the presence of chemical substance/The level of expressed mRNA in the absence of chemical substance", "setting": "yeast gene YOR185C", "result": 1.3},
      {"measurement": "The level of expressed mRNA in the presence of chemical substance/", "setting": "yeast gene YOR197W, ratio to control without chemical", "result": 1.0},
      {"measurement": "The level of expressed mRNA in the presence of chemical substance/The level of expressed mRNA in the absence of chemical substance", "setting": "yeast gene YOR198C", "result": 0.7},
      {"measurement": "The level of expressed mRNA in the presence of chemical substance/The level of expressed mRNA in the absence of chemical substance", "setting": "yeast gene YOR259C", "result": 1.1},
      {"measurement": "The level of expressed mRNA in the presence of chemical substance/The level of expressed mRNA in the absence of chemical substance", "setting": "yeast gene YOR261C", "result": 1.4},
      {"measurement": "The level of expressed mRNA in the presence of chemical substance/The level of expressed mRNA in the absence of chemical substance", "setting": "yeast gene YOR288C", "result": 1.3},
      {"measurement": "The level of expressed mRNA in the presence of chemical substance/The level of expressed mRNA in the absence of chemical substance", "setting": "yeast gene YOR355W", "result": 0.6},
      {"measurement": "The level of expressed mRNA in the presence of chemical substance/in the absence of chemical substance", "setting": "yeast gene YOR363C", "result": 2.0},
      {"measurement": "The level of expressed mRNA in the presence of chemical substance/The level of expressed mRNA in the absence of chemical substance", "setting": "yeast gene YOR383C", "result": 4.3},
      {"measurement": "The level of expressed mRNA in the presence of chemical substance/", "setting": "yeast gene YPL087W, ratio to control without chemical", "result": 5.1},
      {"measurement": "The level of expressed mRNA in the presence of chemical substance/The level of expressed mRNA in the absence of chemical substance", "setting": "yeast gene YPL089C", "result": 1.0},
      {"measurement": "The level of expressed mRNA in the presence of chemical substance/The level of expressed mRNA in the absence of chemical substance", "setting": "yeast gene YPL109C", "result": 2.5},
      {"measurement": "The level of expressed mRNA in the presence of chemical substance/The level of expressed mRNA in the absence of chemical substance", "setting": "yeast gene YPL149W", "result": 1.5},
      {"measurement": "The level of expressed mRNA in the presence of chemical substance/The level of expressed mRNA in the absence of chemical substance", "setting": "yeast gene YPL154C", "result": 3.3},
      {"measurement": "The level of expressed mRNA in the presence of chemical substance/", "setting": "yeast gene YPL196W, ratio to control without chemical", "result": 1.6},
      {"measurement": "The level of expressed mRNA in the presence of chemical substance/", "setting": "yeast gene YPL206C, ratio to control without chemical", "result": 2.9},
      {"measurement": "The level of expressed mRNA in the presence of chemical substance/", "setting": "yeast gene YPL222W, ratio to control without chemical", "result": 3.5},
      {"measurement": "The level of expressed mRNA in the presence of chemical substance/", "setting": "yeast gene YPR023C, ratio to control without chemical", "result": 1.4},
      {"measurement": "The level of expressed mRNA in the presence of chemical substance/The level of expressed mRNA in the absence of chemical substance", "setting": "yeast gene YPR103W", "result": 1.1},
      {"measurement": "The level of expressed mRNA in the presence of chemical substance/The level of expressed mRNA in the absence of chemical substance", "setting": "yeast gene YPR108W", "result": 1.0},
      {"measurement": "The level of expressed mRNA in the presence of chemical substance/", "setting": "yeast gene YPR151C, ratio to control without chemical", "result": 2.0},
      {"measurement": "The level of expressed mRNA in the presence of chemical substance/in the absence of chemical substance", "setting": "yeast gene YPR184W", "result": 1.4}
    ]}
  ]
}
